Here are results for five compounds from paper PMC4891657, “Orexin 2 Receptor Antagonism is Sufficient to Promote NREM and REM Sleep from Mouse to Man” (Scientific Reports, 2016).

The target in assay [1] is T1, OX1R (Oryctolagus cuniculus, UniProt G1SPJ3).
T1 sequence (G1SPJ3 1-416): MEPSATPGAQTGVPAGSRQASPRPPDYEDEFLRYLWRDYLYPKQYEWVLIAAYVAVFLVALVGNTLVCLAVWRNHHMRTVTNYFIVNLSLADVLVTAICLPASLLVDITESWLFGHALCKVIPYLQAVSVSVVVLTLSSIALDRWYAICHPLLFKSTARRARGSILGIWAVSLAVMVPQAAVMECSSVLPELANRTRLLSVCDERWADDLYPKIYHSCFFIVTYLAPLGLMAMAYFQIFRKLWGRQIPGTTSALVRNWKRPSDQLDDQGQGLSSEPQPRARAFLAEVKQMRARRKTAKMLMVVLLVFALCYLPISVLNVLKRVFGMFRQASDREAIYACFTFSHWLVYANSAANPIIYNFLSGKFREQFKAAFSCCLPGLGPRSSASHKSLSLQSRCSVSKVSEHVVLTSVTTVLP
The assay can be described thus: Inhibition of orexin-peptide-A-induced calcium mobilization in CHO cells, rabbit OX1R. The assay is classed as cell-based. As to the method: (§1) MK-1064 was evaluated for its ability to inhibit orexin-peptide-A-induced calcium mobilization in CHO cell lines separately expressing OX1R and OX2R from mice, rats, rabbits, dogs, rhesus monkeys and humans.
(§2) Binding and functional blockade of OX1R and OX2R with MK-1064 relative to other 2-SORAs and the DORA, MK-6096, were assessed using membranes from Chinese hamster ovary (CHO)-K1 cells (American Type Tissue Collection, Manassas, VA) transfected to express human, mouse, rat, rabbit, dog, or rhesus monkey OX1R or OX2R receptors, as described previously. The kinetics of binding to human OX2R was assessed by radioligand displacement on CHO-K1 cells expressing the receptor. […] The ON rate analysis was performed by presoaking GF/B filters in 0.3% polyethyleneimine (Sigma) using a Skatron 12-well cell harvester and cold buffer at the indicated time points after addition. For OFF rate determination, binding reactions were allowed to proceed to equilibrium and terminated with 1000x [Kd] of unlabeled antagonist and filtered as above at pre-determined time points. Ultima Gold^TM (PerkinElmer 6013327) scintillation cocktail was added to each filter disc and counted on a PerkinElmer TriCarb 2910 scintillation counter. Data were analyzed using GraphPad® Prism v 6.04 (San Diego, CA, USA). The KON rate was determined according to the equation, KON = (KOBS − KOFF)/[ligand].
Background: A change in cytosolic calcium serves as a functional read-out for many receptors and channels.

Assay [2] has as its target T2, OX2R (Rattus norvegicus, UniProt P56719).
T2 construct: expressed in transfected cells; host or cells: CHO-K1
T2 sequence (P56719 1-460): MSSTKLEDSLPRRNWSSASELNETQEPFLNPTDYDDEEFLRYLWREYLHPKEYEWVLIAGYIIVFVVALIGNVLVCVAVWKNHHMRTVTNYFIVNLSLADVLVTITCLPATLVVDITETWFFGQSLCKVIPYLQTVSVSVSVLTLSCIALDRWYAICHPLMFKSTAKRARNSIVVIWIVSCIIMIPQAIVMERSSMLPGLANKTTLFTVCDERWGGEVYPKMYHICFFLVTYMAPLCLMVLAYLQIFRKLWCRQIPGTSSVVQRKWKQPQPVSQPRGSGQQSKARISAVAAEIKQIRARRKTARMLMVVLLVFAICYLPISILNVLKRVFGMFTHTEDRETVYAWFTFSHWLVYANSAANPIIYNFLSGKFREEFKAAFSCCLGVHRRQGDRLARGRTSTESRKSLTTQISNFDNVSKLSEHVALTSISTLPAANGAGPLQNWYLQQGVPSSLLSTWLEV
The assay can be described thus: Inhibition of orexin-peptide-A-induced calcium mobilization in CHO cells, rat OX2R. The assay is classed as cell-based. Conditions: for fold OX2R selectivity (Kb): OX1R Kb / OX2R Kb. As to the method: as §1, §2

Assay [3] has as its target T3, OX1R (Rattus norvegicus, UniProt P56718).
T3 construct: expressed in transfected cells; host or cells: CHO-K1
T3 sequence (P56718 1-416): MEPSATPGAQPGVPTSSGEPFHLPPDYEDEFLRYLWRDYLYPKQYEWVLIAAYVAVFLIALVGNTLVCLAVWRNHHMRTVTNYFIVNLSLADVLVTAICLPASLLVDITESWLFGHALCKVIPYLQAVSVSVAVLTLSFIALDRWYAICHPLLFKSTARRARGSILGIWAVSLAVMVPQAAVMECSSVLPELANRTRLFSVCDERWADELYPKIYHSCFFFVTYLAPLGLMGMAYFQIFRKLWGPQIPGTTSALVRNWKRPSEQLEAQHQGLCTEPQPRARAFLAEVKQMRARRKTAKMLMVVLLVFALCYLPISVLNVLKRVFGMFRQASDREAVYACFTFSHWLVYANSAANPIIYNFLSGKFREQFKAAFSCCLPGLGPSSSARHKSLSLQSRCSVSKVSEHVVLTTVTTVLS
The assay can be described thus: Radio-ligand displacement binding, CHO-K1 membranes, rat OX1R. Particulars: read-out: OX1R affinity (Ki). The procedure: as §1, §2

Assay [4] deals with T4, OX2R (Homo sapiens, UniProt O43614).
T4 sequence (O43614 1-444): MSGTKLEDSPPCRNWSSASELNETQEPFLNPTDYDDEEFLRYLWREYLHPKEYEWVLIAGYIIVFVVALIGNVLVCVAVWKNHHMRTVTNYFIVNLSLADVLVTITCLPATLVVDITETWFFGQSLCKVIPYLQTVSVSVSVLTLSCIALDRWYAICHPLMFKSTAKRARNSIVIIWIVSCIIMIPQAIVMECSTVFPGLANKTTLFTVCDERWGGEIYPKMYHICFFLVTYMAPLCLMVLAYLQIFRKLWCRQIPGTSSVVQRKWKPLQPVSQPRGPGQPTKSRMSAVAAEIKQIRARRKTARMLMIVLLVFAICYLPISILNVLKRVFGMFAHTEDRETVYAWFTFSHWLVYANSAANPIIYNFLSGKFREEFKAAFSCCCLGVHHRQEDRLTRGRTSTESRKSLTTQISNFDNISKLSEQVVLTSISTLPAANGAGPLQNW
The assay can be described thus: Inhibition of orexin-peptide-A-induced calcium mobilization in CHO cells, human OX2R. Conditions: for fold OX2R selectivity (Kb): OX1R Kb / OX2R Kb. Details: expressed in transfected cells; host or cells: CHO-K1. The assay is classed as cell-based. As to the method: as §1, §2

Another assay concerns the target T5, hOX1R (Homo sapiens, UniProt O43613).
T5 construct: expressed in transfected cells; host or cells: CHO-K1
T5 sequence (O43613 1-425): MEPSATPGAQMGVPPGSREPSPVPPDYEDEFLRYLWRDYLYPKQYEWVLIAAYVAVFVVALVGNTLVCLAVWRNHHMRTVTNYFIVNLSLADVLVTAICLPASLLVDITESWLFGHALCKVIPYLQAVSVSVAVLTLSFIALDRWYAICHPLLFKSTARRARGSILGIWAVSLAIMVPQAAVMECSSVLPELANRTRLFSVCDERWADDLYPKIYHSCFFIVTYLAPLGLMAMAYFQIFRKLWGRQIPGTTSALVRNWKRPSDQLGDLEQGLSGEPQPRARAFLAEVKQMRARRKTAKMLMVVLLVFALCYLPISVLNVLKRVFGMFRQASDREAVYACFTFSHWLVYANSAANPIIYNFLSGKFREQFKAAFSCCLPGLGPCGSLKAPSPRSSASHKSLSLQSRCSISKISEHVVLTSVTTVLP
The assay can be described thus: Inhibition of orexin-peptide-A-induced calcium mobilization in CHO cells, human OX1R. The assay is classed as cell-based. As to the method:
as §1, §2

On to `COc1ccc(CNC(=O)c2cc(-c3cncc(C)c3)ncc2-c2nccs2)nc1OC` [MK-3697], for which the values for the Kb on OX1R [1], on OX2R [2] and at OX2R [4] were 32100 nM, 31 nM and 14 nM, respectively. Also, the Ki (commonly a measure of affinity in units of concentration, obtained from inhibition or displacement) on OX1R [3] came to 2390 nM.
Take `COc1ccc(CNC(=O)c2cc(-c3cc(Cl)cc(Cl)c3)cnc2-c2cccnc2)cc1OC` [2-SORA-18]: the Kb was 496 nM at OX1R [1], 161 nM at hOX1R, 21 nM on OX2R [2] and 18 nM at OX2R [4]. Moreover, the “fold OX2R selectivity (Kb)” value at OX2R [2] was “[50] fold”; at OX2R [4], “[9] fold”. In addition, the inhibition constant (Ki) on OX1R [3] is 94 nM.
Consider `COc1ccc(CNC(=O)c2cc(-c3cncc(Cl)c3)cnc2-c2ccccn2)nc1OC` [MK-1064, 5″-chloro-N-[(5,6-dimethoxypyridin-2-yl)methyl]-2,2′:5′, 3″-terpyridine-3′-carbo xamide], for which the Kb amounted to 7370 nM on OX1R [1], 1870 nM at hOX1R, 13 nM on OX2R [2] and 9 nM on OX2R [4]. Further, the “fold OX2R selectivity (Kb)” value on OX2R [2] was “[613] fold”; at OX2R [4], “[208] fold”. For the same compound, the Ki at OX1R [3] is 1070 nM.
As to `COc1ccc(CNC(=O)c2cc(-c3cncc(C)c3)ncc2-c2ccccc2)nc1OC` [2-SORA-7], the Kb on OX1R [1] came out at 16800 nM; at hOX1R, 4360 nM; at OX2R [2], 18 nM; on OX2R [4] it was 12 nM. Moreover, the entries for the “fold OX2R selectivity (Kb)” value on OX2R [2] and on OX2R [4] were “[3238] fold” and “[363] fold”, respectively. The Ki at OX1R [3] turned out to be 2610 nM.
On to `Cc1ccc(-c2ncccn2)c(C(=O)N2C[C@H](COc3ccc(F)cn3)CC[C@H]2C)c1` [MK-6096], for which the Kb was found to be 13 nM at OX1R [1], 11 nM at hOX1R, 22 nM at OX2R [2] and 11 nM at OX2R [4]. Also, the “fold OX2R selectivity (Kb)” value was “[0.5] fold” on OX2R [2] and “[1.0] fold” at OX2R [4]. The Ki on OX1R [3] amounted to 2.5 nM.
